Experimental data: ChEMBL document CHEMBL1909046, “DrugMatrix in vitro pharmacology data”

What was measured:
[1] = DRUGMATRIX: ATPase, Na+/K+ enzyme inhibition (substrate: ATP); assay type: tissue-based, Sus scrofa, Heart; details: Not Active = under 50% inhibition at 10 µM
[2] = DRUGMATRIX: beta-Lactamase enzyme inhibition (substrate: Nitrocefin); set-up: species or system Bacillus cereus; details: Not Active = under 50% inhibition at 10 µM
[3] = molecular target: T1, 3-hydroxy-3-methylglutaryl-coenzyme A reductase (Homo sapiens, UniProt P04035); set-up: species or system Escherichia coli;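 also: enzyme inhibition assay of HMG-CoA reductase using radiolabeled [14C]HMG-CoA as substrate; in other assays of this panel Not Active means under 50% inhibition at 10 µM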
T1 sequence (P04035 whole entry): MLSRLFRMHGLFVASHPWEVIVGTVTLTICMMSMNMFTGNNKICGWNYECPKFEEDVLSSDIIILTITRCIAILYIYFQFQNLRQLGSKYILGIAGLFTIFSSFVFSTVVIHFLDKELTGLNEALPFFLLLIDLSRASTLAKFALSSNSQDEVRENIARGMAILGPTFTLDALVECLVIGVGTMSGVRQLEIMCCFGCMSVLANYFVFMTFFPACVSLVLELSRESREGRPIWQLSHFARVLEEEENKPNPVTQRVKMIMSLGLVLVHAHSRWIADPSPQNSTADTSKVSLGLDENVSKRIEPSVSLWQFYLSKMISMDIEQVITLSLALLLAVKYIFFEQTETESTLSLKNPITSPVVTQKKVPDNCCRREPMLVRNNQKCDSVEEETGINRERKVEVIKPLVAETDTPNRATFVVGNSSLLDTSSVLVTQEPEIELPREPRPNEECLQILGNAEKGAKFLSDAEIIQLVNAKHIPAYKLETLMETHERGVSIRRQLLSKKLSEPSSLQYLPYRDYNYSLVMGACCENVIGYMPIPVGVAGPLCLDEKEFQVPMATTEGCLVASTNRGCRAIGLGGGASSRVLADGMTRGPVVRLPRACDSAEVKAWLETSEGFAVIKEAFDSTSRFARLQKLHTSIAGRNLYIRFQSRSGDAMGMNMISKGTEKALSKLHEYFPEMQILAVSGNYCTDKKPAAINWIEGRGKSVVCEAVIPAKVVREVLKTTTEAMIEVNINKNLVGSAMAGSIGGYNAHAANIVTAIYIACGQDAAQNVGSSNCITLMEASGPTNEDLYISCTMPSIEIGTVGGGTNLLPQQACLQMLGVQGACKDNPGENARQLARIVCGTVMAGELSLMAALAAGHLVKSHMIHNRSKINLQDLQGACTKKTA

[4] = DRUGMATRIX: Leukotriene, BLT (LTB4) radioligand binding (ligand: [3H]LTB4); assay type: cell membranes, Membrane; details: u-937; Not Active = under 50% inhibition at 10 µM
[5] = DRUGMATRIX: Nicotinic Acetylcholine radioligand binding (ligand: [125I] Epibatidine); assay type: cell membranes, Membrane; details: imr-32; Not Active = under 50% inhibition at 10 µM
[6] = molecular target: Kappa-type opioid receptor (Homo sapiens, UniProt P41145); test: DRUGMATRIX: Opiate kappa (OP2, KOP) radioligand binding (ligand: [3H] Diprenorphine); assay type: cell membranes, HEK293, Membrane; details: hek293; Not Active = under 50% inhibition at 10 µM
Interstitial collagenase = molecular target: T2, Interstitial collagenase (Homo sapiens, UniProt P03956); test: biochemical; assay type: tissue-based, Rheumatoid synovial fibroblasts;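 also: MMP-1 enzyme inhibition assay using a peptide substrate; in other assays of this panel Not Active means under 50% inhibition at 10 µM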
T2 sequence (P03956 whole entry): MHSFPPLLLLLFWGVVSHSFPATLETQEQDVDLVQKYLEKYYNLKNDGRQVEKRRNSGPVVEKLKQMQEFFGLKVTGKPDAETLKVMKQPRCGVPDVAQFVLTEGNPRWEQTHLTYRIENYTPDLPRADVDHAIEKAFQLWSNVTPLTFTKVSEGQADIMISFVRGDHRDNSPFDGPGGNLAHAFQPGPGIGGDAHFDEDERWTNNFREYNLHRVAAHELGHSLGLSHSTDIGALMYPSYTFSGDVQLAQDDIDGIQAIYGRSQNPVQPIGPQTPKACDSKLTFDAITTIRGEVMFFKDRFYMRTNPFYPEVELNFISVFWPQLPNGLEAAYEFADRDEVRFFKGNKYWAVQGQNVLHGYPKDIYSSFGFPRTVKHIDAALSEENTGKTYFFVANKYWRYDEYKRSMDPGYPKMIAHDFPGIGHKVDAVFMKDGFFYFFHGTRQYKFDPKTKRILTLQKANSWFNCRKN

Chain of Kappa-type opioid receptor (P41145 whole entry): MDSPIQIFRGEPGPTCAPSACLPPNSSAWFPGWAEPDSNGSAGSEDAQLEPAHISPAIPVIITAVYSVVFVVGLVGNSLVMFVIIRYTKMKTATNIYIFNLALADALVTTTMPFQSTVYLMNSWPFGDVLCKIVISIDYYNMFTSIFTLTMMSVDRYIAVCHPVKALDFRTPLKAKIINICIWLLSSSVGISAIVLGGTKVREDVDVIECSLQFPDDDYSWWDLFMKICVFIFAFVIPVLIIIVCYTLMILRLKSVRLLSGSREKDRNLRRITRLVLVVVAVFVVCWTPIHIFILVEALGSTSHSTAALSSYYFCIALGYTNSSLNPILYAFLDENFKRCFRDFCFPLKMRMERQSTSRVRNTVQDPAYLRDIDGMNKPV

CCN(C(C)=O)c1cccc(-c2ccnc3c(C#N)cnn23)c1 [ZALEPLON]
Not Active: IC50 [1] | Ki [1] | IC50 [2] | Ki [2] | IC50 [3] | IC50 [4] | Ki [4] | IC50 [5] | Ki [5] | IC50 [6] | IC50 (Interstitial collagenase)
